Consider two substances from patent US20090074850A1, “USE OF A TOPICAL COMPOSITION CONTAINING EPIDERMAL GROWTH FACTOR (EGF) FOR DIABETIC FOOT AMPUTATION PREVENTION” (priority 2005, published 2009).

The test system of data set [1] is controlled acute ulcers in male Wistar rats. The data set is described as follows: Experimental model of controlled acute lesions. It counts as in vivo. The method, then:
The following experiment was performed with the aim of evaluating the cicatrisation effect of the new pharmaceutical formulation for topical use, which is based on EGF-loaded (deformable or traditional) liposomes, in acute lesions of satisfactory prognosis.
(§1) Experimental Biomodel Male Wistar rats with a body weight of 225-250 grams. Animal were maintained in controlled areas of the animal facility at CIGB under a constant illumination schedule of 12×12 hours, air change cycles, and free access to the diet. The rats were individually housed into T3 boxes with replacement of the bedding every 48 hours after its sterilization. Induction of ulcers: Animals were anesthetized by intraperitoneal injection of ketamine/xylazine. The back of rats comprising the area from the retroscapular space up to the sacrum was mechanically and chemically depilated. This region was aseptisized with a solution of povidone-iodine and isopropyl alcohol. The area over the skin selected for the induction of ulcers was marked with Chinese ink in order to induce circular, total width lesions with the aid of 9 mm-diameter biotomes (AcuDrem, Fl, USA). […] Lesions were washed with a sterile saline solution and their inner border was delineated with permanent ink for later calculation of wound area at time zero. The lesions of all animals were hygienized daily with 70% ethanol and sterile saline before the application of any treatment.
(§2) The ulcers created in the animals were randomly assigned to the following experimental treatment groups by using an input order/group crossmatching table:
(§3) Group I—no treatment. Group II—placebo (formulation of empty deformable liposomes—without EGF) applied topically.
(§4) Group III—infiltration of an EGF solution containing 75 micrograms per milliliter by using hypodermic needles. Infiltrations were performed on the border and the bottom of wounds
Group IV—treatment with the formulation of traditional liposomes containing 25 micrograms of EGF per gram of substance applied topically Group V—treatment with the formulation of traditional liposomes containing 75 micrograms of EGF per gram of substance applied topically Group V—treatment with the formulation of deformable liposomes containing 25 micrograms of EGF per gram of substance applied topically Group VII—treatment with the formulation of deformable liposomes containing 75 micrograms of EGF per gram of substance applied topically
(§5) Each group consisted of 10 rats; therefore 60 wounds per group were studied. Treatments were performed daily, after sedation of animals with diazepam administrated by the intra-peritoneal route.
(§6) The lesions were traced on transparent acetate sheets for calculating the kinetics of the wounds contraction over the following times: Time 0—represents 100% of opened lesion area and 0% wound contraction, Time 1—72 hours after the induction of lesions, Time 2—five days after the induction of lesions, Time 3—seven days after the induction of lesions, Time 4—nine days after the induction of lesions. The ninth day was set as the end of this study, on which the animals were sacrificed, according to previous experiences on the kinetics of the spontaneous cicatrisation of these lesions. The images with traced lesions borders were digitized. The area of lesions and the percent of contraction were calculated by using the image analysis software DIGIPAT. Statistical analyses of each parameter were performed with the SPSS package by using the non-parametric Mann Whitney U test, a signification level of p<0.05 was assumed.
Animals were sacrificed by intra-peritoneal injection with an overdose of sodium pentobarbital (250 mg/kg). Lesion were dried up from the panniculus carnosus and fixed in 10% neutral formalin for later inclusion in paraffin. The hematoxylin/eosin, van Giesson's and Masson's trichromic stains were used. For each group, the number of animals with 100% epithelization of the lesion, and with a stratified and differentiated epidermis was determined. […]

Data set [2] concerns chronic ulcers in male Wistar rats treated with methylglyoxal. Description: Experimental model of chronic cutaneous ulcers (methylglyoxal-treated rats). It counts as in vivo. The method, then:
The following experiment was aimed at evaluating the cicatrisation effect of the new pharmaceutical formulation of topical use that is based on traditional or deformable liposomes containing EGF in chronic lesions of poor prognosis, which simulate lesions in diabetic patients.
Experimental Biomodel Male Wistar rats with a body weight of 225-250 grams. Animal were maintained in controlled areas of the animal facility at CIGB under a constant illumination schedule of 12×12 hours, air change cycles, and free access to the diet. The rats were individually housed into T3 boxes with replacement of the bedding every 48 hours after its sterilization. The animals had previously been treated for two months with a 0.01% methylglyoxal solution to create a glycosylation environment similar to that occurring in a diabetic patient of long term evolution. Among other organic damages, this leads to a slow down of the granulation and remodelation of wounds (Berlanga J., Cibrian D., et al. (2005) Methylglyoxal administration induces diabetes-like microvascular changes and perturbs the healing process of cutaneous wounds. Clin Sci (Lond). 109(1):83-95).
as §1, with “Induction” for “Experimental Biomodel Male Wistar rats with a body weight of 225-250 grams. Animal were maintained in controlled areas of the animal facility at CIGB under a constant illumination schedule of 12×12 hours, air change cycles, and free access to the diet. The rats were individually housed into T3 boxes with replacement of the bedding every 48 hours after its sterilization. Induction”
as §2, §3, §4
Group IV—treatment with the formulation of traditional liposomes containing 25 micrograms of EGF per gram of substance applied topically Group V—treatment with the formulation of traditional liposomes containing 75 micrograms of EGF per gram of substance applied topically Group VI—treatment with the formulation of deformable liposomes containing 25 micrograms of EGF per gram of substance applied topically Group VII—treatment with the formulation of deformable liposomes containing 75 micrograms of EGF per gram of substance applied topically
as §5
as §6, with “[…],” for “Time 4—nine days after the induction of lesions. The ninth day was set as the end of this study,”, “assumed. […]” for “assumed.”

A short description of data set [3]: Concentration of EGF in the viable tissue deep below the cutaneous lesions (ELISA). It counts as in vivo, Wistar rats. Conditions: tissue 1 cm below lesion. The method, then: To determine the concentration of EGF, histological cuts of the tissue deep below (1 cm) the cutaneous lesions were performed 20 min, 1 h, 4 h, 8 h, 16 h and 24 h after the induction of lesions. The tissue was homogenized into a phosphate-buffered saline solution. The concentration of EGF was determined by an Enzyme Linked Immunosorbent Assay (ELISA).
(ELISA stands for enzyme-linked immunosorbent assay.)

Data set [4] has as its system diabetic foot ulcers, grade IV and V lesions with a severe ischemic component. The following applies: EGF infiltrated in and around lesions with hypodermic needles; cited from earlier work.

Marks after values point to notes of the source that are not given here.

On to “Group III: infiltration of an EGF solution containing 75 micrograms per milliliter by using hypodermic needles”, for which the “No. wounds with 100% epithelization” value amounted to 37 in data set [1] (60 wounds per group) and 16 in data set [2] (60 wounds per group). The “No. wounds with a mature epithelium” value turned out to be 25 in data set [1] (60 wounds per group) and 11 in data set [2] (60 wounds per group). Also, the “Contraction (%)” value in data set [1] (Time 1 (72 hours after induction of lesions)) was 12.3 ± 2.1*^a %; in data set [1] (Time 2 (five days)), 23 ± 2.7*^a %; in data set [1] (Time 3 (seven days)), 67.5 ± 3.1*^a %; in data set [1] (Time 4 (nine days)) it was 76.5 ± 2.2*^a %; in data set [2] (Time 1) it was 6.55 ± 1.14%; in data set [2] (Time 2), 10.25 ± 3.1 %. For the same substance, the “Contraction (%)” value was determined as 25 ± 2.7 % in data set [2] (Time 3), 53.5 ± 3.5 % in data set [2] (Time 4) and 61.7 ± 2.14 % in data set [2] (Time 6). Further, the “% area covered by mature granulation tissue” value stood at 66.7 ± 3.22% in data set [1] (Time 4, 60 wounds per group) and 41.7 ± 2.25% in data set [2] (Time 4, 60 wounds per group). The “EGF concentration” value came to 27.55 ± 0.14 µg/mL in data set [3] (20 min); 5.47 ± 0.1 µg/mL in data set [3] (1 h); 1.55 ± 0.1 µg/mL in data set [3] (4 h); 0.26 ± 0.04 µg/mL in data set [3] (8 h); 0.07 ± 0.01 µg/mL in data set [3] (16 h); 0.02 ± 0.005 µg/mL in data set [3] (24 h).

Take “epidermal growth factor (EGF) [Free EGF, non-encapsulated epidermal growth factor]”: in data set [4], the efficacy entry was “greater than 50%”.
